This is an account of results in ChEMBL document CHEMBL3286201, “Antileishmanial activity of a series of N²,N⁴-disubstituted quinazoline-2,4-diamines” (J Med Chem, 2014).

Data set [1] can be described thus: AUC (last) in Swiss Webster mouse plasma at 100 umol/kg, ip. In kind it is ADME, cell-free. Set-up: dose 100 umol/kg, route intraperitoneal, time 0 - last.
The subject of a further data set is Leishmania amazonensis. The experiment in a line: Antileishmanial activity against intracellular amastigote stage of Leishmania amazonensis LV78 infected in mouse J774A1 cells by colorimetric assay. In kind it is functional, organism-based. The note with it: LV78, J774.A1.
Data set [2] in a line: AUC (last) in Swiss Webster mouse plasma at 100 umol/kg, po. In kind it is ADME, cell-free. Set-up: dose 100 umol/kg, route oral, time 0 - last.
Data set [3] relates to Leishmania donovani. The experiment in a line: Antileishmanial activity against antimony-resistant clinical isolate Leishmania donovani BPK164/1 infected in mouse J774A1 cells by colorimetric assay. In kind it is functional, organism-based. The note with it: BPK164/1, J774.A1.
The subject of data set [4] is Spleen. The experiment in a line: Cmax in Swiss Webster mouse spleen at 100 umol/kg, ip. Type of data set: ADME, tissue-based. To be noted: in vivo. The arrangement: dose 100 umol/kg, route intraperitoneal.
Data set [5] concerns Spleen. The experiment in a line: AUC (last) in Swiss Webster mouse spleen at 100 umol/kg, po. In kind it is ADME, tissue-based. Set-up: dose 100 umol/kg, time 0 - last, route oral. The note with it: in vivo.
The nature of data set [6]: Distribution coefficient, log D of the compound at pH 7.4. Type of data set: physicochemical. To be noted: octanol/water.
Data set [7] can be described thus: Distribution coefficient, log D of the compound at pH 3. In kind it is physicochemical. The note with it: octanol/water.
Data set [8] is described as follows: Cmax in Swiss Webster mouse plasma at 100 umol/kg, ip. In kind it is ADME, cell-free. Set-up: dose 100 umol/kg, route intraperitoneal.
The conditions of data set [9]: pampa, pH 4.
Description: (§1) Passive transcellular permeability of the compound at pH 4 by PAMPA
In data set [10] the test system is Liver. In words: Half life in mouse liver microsomes at 1 uM after 60 mins by HPLC-MS/MS analysis. In kind it is ADME. To be noted: 1 h. (Microsomes from liver hold many membrane-bound enzymes, among them those of drug oxidation.)
The nature of data set [11]: Aqueous solubility of the compound at pH 2. In kind it is physicochemical. To be noted: buffer.
Data set [12] deals with Liver. In words: Cmax in Swiss Webster mouse liver at 100 umol/kg, ip. Type of data set: ADME, tissue-based. Set-up: dose 100 umol/kg, route intraperitoneal. To be noted: in vivo.
Data set [13] can be described thus: Cmax in Swiss Webster mouse plasma at 100 umol/kg, po. In kind it is ADME, cell-free. The arrangement: dose 100 umol/kg, route oral.
Data set [14] has as its system Spleen. In words: AUC (last) in Swiss Webster mouse spleen at 100 umol/kg, ip. Type of data set: ADME, tissue-based. Set-up: dose 100 umol/kg, route intraperitoneal, time 0 - last. The note with it: in vivo.
The nature of data set [15]: Cytotoxicity against mouse J774A1 cells after 72 hrs by MTT assay. The note with it: J774.A1, 72 h. Type of data set: cell-based.
Data set [16] has as its system Liver. The experiment in a line: AUC (last) in Swiss Webster mouse liver at 100 umol/kg, po. Set-up: dose 100 umol/kg, time 0 - last, route oral. Type of data set: ADME, tissue-based. To be noted: in vivo.
The test system of data set [17] is Spleen. The experiment in a line: Cmax in Swiss Webster mouse spleen at 100 umol/kg, po. Type of data set: ADME, tissue-based. The arrangement: dose 100 umol/kg, route oral. The note with it: in vivo.
Data set [18] relates to Liver. The experiment in a line: Cmax in Swiss Webster mouse liver at 100 umol/kg, po. In kind it is ADME, tissue-based. Set-up: dose 100 umol/kg, route oral. To be noted: in vivo.
For data set [19] the following is noted: pampa, pH 7.4.
Description: (§2) Passive transcellular permeability of the compound at pH 7.4 by PAMPA
A short description of data set [20]: Aqueous solubility of the compound at pH 7.4. In kind it is physicochemical. To be noted: buffer.
Data set [21] is described as follows: Elimination half life in Swiss Webster mouse plasma at 100 umol/kg, ip. In kind it is ADME, cell-free. To be noted: read-out: beta t1/2 (converted).
The test system of data set [22] is Liver. In words: AUC (last) in Swiss Webster mouse liver at 100 umol/kg, ip. In kind it is ADME, tissue-based. The arrangement: dose 100 umol/kg, time 0 - last, route intraperitoneal. The note with it: in vivo.
In data set [23] the test system is Leishmania donovani. The experiment in a line: Antileishmanial activity against intracellular amastigote stage of Leishmania donovani MHOM/ET/67/L82 infected in mouse J774A1 cells by colorimetric assay. Type of data set: functional, organism-based. To be noted: MHOM/ET/67/L82, J774.A1.
The test system of data set [24] is Leishmania donovani. The experiment in a line: Antileishmanial activity against clinical isolate Leishmania donovani BPK206/0 infected in mouse J774A1 cells by colorimetric assay. To be noted: BPK206/0, J774.A1.
Data set [25] is described as follows: Elimination half life in Swiss Webster mouse plasma at 100 umol/kg, po. In kind it is ADME, cell-free.
Data set [26] relates to Mus musculus. The experiment in a line: Toxicity in BALB/c mouse assessed as hypoactivity at 30 mg/kg, ip for 5 consecutive doses. The note with it: in vivo. Type of data set: organism-based. Set-up: dose 30 mg/kg, route intraperitoneal.
Data set [27] concerns Mus musculus. In words: Toxicity in BALB/c mouse assessed as slowed breathing at 30 mg/kg, ip for 5 consecutive doses. In kind it is organism-based. The arrangement: dose 30 mg/kg, route intraperitoneal. The note with it: in vivo.
Data set [28] in a line: Toxicity in BALB/c mouse assessed as tolerated dose treated ip for 5 consecutive doses. Type of data set: organism-based. The note with it: in vivo.
Data set [29] can be described thus: Selectivity index, ratio of EC50 for mouse J774A1 cells to EC50 for intracellular amastigote stage of Leishmania donovani MHOM/ET/67/L82. In kind it is toxicity, cell-based, J774.A1. The note with it: read-out: Ratio EC50.
The nature of data set [30]: physchem. The note with it: pampa, pH 7.4.
Description: as §2
A short description of data set [31]: physchem. The note with it: pampa, pH 4.
Description: as §1

The AUC(0-t) is the area under the concentration-time curve up to a stated or last time point. High values mean high exposure, low ones low exposure. In general, EC50 refers to the midpoint of the concentration-response curve. A low value points to greater potency. Usually Cmax stands for the highest concentration seen after dosing. One may read the logD as lipophilicity at a set pH, counting ionised and neutral species. High values mean higher lipophilicity, low ones lower lipophilicity. A word on the solubility: it is the dissolved amount per volume that the medium holds. High values mean much dissolved substance, low ones little dissolved substance. One may read the MTD as the largest dose that counted as tolerated. By Papp is commonly meant a coefficient for how fast a substance crosses the barrier. A high value points to ready permeation.

A value given as a limit tells only on which side of the number the result lay.

With `Cc1ccc2c(NCc3ccco3)nc(NC(C)C)nc2c1`, the figures for the AUC(0-t) in [1] and in data set [2] were 4.6 µM·h and 2.5 µM·h, respectively. Besides, the EC50 was 4.1 µM in the data set with Leishmania amazonensis; 3.8 µM in the data set on Leishmania donovani [3]; above 33 µM in data set [15]; 0.83 µM in the data set with Leishmania donovani [23]; 4.2 µM in the data set on Leishmania donovani [24]. Further, the peak concentration (Cmax) was found to be 45.8 µM with Spleen [4]; 2.67 µM in data set [8]; 48 µM in the data set with Liver [12]; 0.25 µM in [13]; 0.9 µM with Spleen [17]; 5.2 µM in the data set on Liver [18]. For the same compound, the AUClast with Spleen [5] is 7.4 µM·h; in the data set on Spleen [14], 71 µM·h; in the data set with Liver [16] it was 29 µM·h; in the data set with Liver [22], 42 µM·h. The results for the logD in [6] and in data set [7] were 3.61 and 1.58, respectively. Further, the permeability in data set [9] was 67.2 ×10⁻⁶ cm/s; in data set [19], 798 ×10⁻⁶ cm/s. Further, the t1/2 in the data set on Liver [10] turned out to be 0.157 h. Besides, the solubility in data set [11] was at least 30 µM; in data set [20], at most 20 µM. Further, the half-life is 5.4 h in data set [21] and 20 h in [25]. Also, the Activity entry in the data set on Mus musculus [26] was “Toxic”.

For `CCCCNc1nc(NCc2ccccc2)nc2ccccc12`, the AUC(0-t) turned out to be 11 µM·h in data set [1] and 7.8 µM·h in data set [2]. Also, the EC50 in the data set on Leishmania amazonensis was determined as 1.4 µM; in the data set with Leishmania donovani [3] it was 1.4 µM; in data set [15], 4.9 µM; with Leishmania donovani [23], 0.34 µM; in the data set with Leishmania donovani [24], 2 µM. In addition, the Cmax with Spleen [4] was determined as 163 µM; in data set [8] it was 5.21 µM; with Liver [12], 148 µM; in [13], 0.44 µM; in the data set on Spleen [17], 7 µM; in the data set with Liver [18] it was 15.8 µM. Moreover, the AUClast with Spleen [5] was determined as 68 µM·h; with Spleen [14], 620 µM·h; in the data set on Liver [16], 110 µM·h; in the data set on Liver [22], 500 µM·h. Moreover, the results for the logD in data set [6] and in [7] were 3.84 and 2.86, respectively. Besides, the values for the permeability in [9] and in data set [19] were 341 ×10⁻⁶ cm/s and 1020 ×10⁻⁶ cm/s, respectively. Further, the t1/2 in the data set with Liver [10] turned out to be 0.45 h. Moreover, the Activity entry with Mus musculus [27] was “Toxic”. Also, the solubility in data set [11] was at least 30 µM; in data set [20], at most 10 µM. Besides, the half-life in [21] is 20 h.

With `CNc1nc(NCc2ccccc2)nc2ccccc12`, the MTD at 5 consecutive doses in data set [28] stood at 30 mg/kg. Further, the half-maximal effective concentration (EC50) with Leishmania amazonensis was 0.9 µM; in the data set with Leishmania donovani [3] it was 2 µM; in data set [15], 15 µM; in the data set with Leishmania donovani [23], 0.15 µM; in the data set on Leishmania donovani [24], 2.8 µM. Also, in data set [29], the selectivity ratio stood at 100. Further, the log distribution coefficient (logD) in [6] is 2.96; in data set [7] it was 2. Also, the permeability in data set [9] was determined as 57.1 ×10⁻⁶ cm/s; in data set [19], 1720 ×10⁻⁶ cm/s. Also, the solubility in data set [11] was at least 30 µM; in data set [20] it was at most 10 µM.

On to `CNC(=C[N+](=O)[O-])NCCSCc1ccc(CN(C)C)o1.Cl` [RANITIDINE HYDROCHLORIDE], for which the Papp was found to be 5.2 ×10⁻⁶ cm/s in “physchem [30]” and 2.2 ×10⁻⁶ cm/s in “physchem [31]”.

Consider `NC(=O)N1c2ccccc2C=Cc2ccccc21` [CARBAMAZEPINE], for which the figures for the Papp in “physchem [30]” and in the data set “physchem [31]” were 130 ×10⁻⁶ cm/s and 108 ×10⁻⁶ cm/s, respectively.

Regarding `CSCCNc1nc(NC(C)C)nc2ccccc12`, the results for the EC50 (with Leishmania amazonensis; in data set [15]; in the data set with Leishmania donovani [23]) were 5.1 µM, 20 µM and 4.3 µM, respectively. Besides, the selectivity ratio in [29] came out at 4.7. Besides, the logD in data set [6] was determined as 3.02; in [7], 2.06. In addition, the permeability in data set [9] was determined as 28.8 ×10⁻⁶ cm/s; in data set [19], 1480 ×10⁻⁶ cm/s. For the same compound, the results for the solubility in data set [11] and in [20] were at least 30 µM and at most 20 µM, respectively.

`CC(C)Nc1nc(NCc2ccco2)c2ccc(Cl)cc2n1`: the EC50 with Leishmania amazonensis is 23 µM; in data set [15], above 100 µM; in the data set on Leishmania donovani [23], 9 µM. For the same compound, in [29], the selectivity ratio is above 11. Besides, the logD stood at 3.91 in data set [6] and 2.51 in data set [7]. Moreover, the permeability in data set [9] was 103 ×10⁻⁶ cm/s; in data set [19] it was 1380 ×10⁻⁶ cm/s. Besides, the solubility in data set [11] was at least 30 µM; in data set [20], at most 20 µM.
